Consider seven compounds from patent publication US20210032205A1, “HETEROARYL SULFONAMIDE COMPOUND AND FORMULATION FOR CONTROLLING HARMFUL ORGANISMS” (Nippon Soda Co., Ltd., priority 2018, published 2021).

One series deals with Meloidogyne incognita. Nature of the series: Efficacy test against Meloidogyne incognita (in vitro test). The conditions noted are these: 48 h, second-instar larvae (L2), 2 days at 15° C., 96-well microplate, read-out: nematode mortality rate against Meloidogyne incognita. It is filed as in vivo. The procedure:
(§1) A suspension containing about 50 second-instar larvae (L2) of Meloidogyne incognita per 0.2 mL was prepared. The compound of the present invention was dissolved in DMSO, so that a DMSO solution containing the compound at a concentration of 10,000 ppm was prepared. 200 μL of the suspension mentioned above per well and 1.0 μL of the DMSO solution of the compound mentioned above per well were dispensed into each well of a 96-well microplate. The final concentration of the compound of the present invention per well was 50 ppm. The 96-well microplate was placed for 2 days at 15° C. Subsequently, mortality was investigated, and the nematode mortality rate was calculated. […] The test was repeated.

The subject of a further series is Spodoptera litura. Nature of the series: Efficacy test against Spodoptera litura (cabbage leaf dip). It is filed as in vivo. As to conditions: foliar, 144 h, cabbage leaves soaked 30 seconds, second-instar larvae, 6 days after release, 25° C., read-out: mortality rate against Spodoptera litura. The procedure: (§2) Five parts of the compound of the present invention, 93.6 parts of dimethylformamide and 1.4 parts of a polyoxyethylene alkyl aryl ether were mixed together and dissolved to obtain an emulsion (I) containing 5% of the active ingredient.
(§3) The mortality rate was calculated using the following equation.
(§4) Mortality rate (%)=(number of dead insects/number of test insects)×100
The emulsion (I) was diluted with water to achieve a concentration of the compound of the present invention of 125 ppm. Cabbage leaves were soaked in the diluted liquid for 30 seconds. These cabbage leaves were then placed in a Petri dish, and five second-instar larvae of Spodoptera litura were released into the dish. The Petri dish closed with a lid was placed in a thermostatic chamber at a temperature of 25° C. and a humidity of 60%. Mortality was investigated 6 days after larvae release, and the mortality rate was calculated. The test was repeated.

The subject of the next series is Plutella xylostella. Nature of the series: Efficacy test against Plutella xylostella (cabbage leaf dip). It counts as in vivo. The conditions noted are these: foliar, 72 h, cabbage leaves soaked 30 seconds, second-instar larvae, 3 days after release, 25° C., read-out: mortality rate (efficacy test against Plutella xylostella; sentence prints Spodoptera litura). The method, then:
as §2, §3, §4
The emulsion (I) was diluted with water to achieve a concentration of the compound of the present invention of 125 ppm. Cabbage leaves were soaked in the diluted liquid for 30 seconds. These cabbage leaves were then placed in a Petri dish, and five second-instar larvae of Plutella xylostella were released into the dish. The Petri dish closed with a lid was placed in a thermostatic chamber at a temperature of 25° C. and a humidity of 60%. Mortality was investigated 3 days after larvae release, and the mortality rate was calculated. The test was repeated.

The subject of a further series is Mythimna separata. Put plainly: Efficacy test against Mythimna separata (artificial feed). It is filed as in vivo. As to conditions: second-instar larvae; 1 μl of 5% emulsion (I) in 0.8 g artificial feed; 5 days at 25° C. The procedure:
as §2
An emulsion (II) containing 0% of an active ingredient was prepared in the same method as that described above, with the exception that 5 parts of the compound of the present invention was not mixed and dissolved.
as §3, §4
First, 0.8 g of an artificial feed (Insecta LFS, manufactured by Nosan Corporation) and 1 μl of the emulsion (I) were mixed thoroughly, and 0.2 g of the resulting mixture was placed in each of the treatment areas of a plastic test container (volume: 1.4 ml) to complete preparation of a test feed. Two second-instar larvae of Mythimna separata were inoculated into each treatment area, and the plastic test container was sealed with a plastic lid. The sealed container was placed for 5 days in a thermostatic chamber at 25° C. Subsequently, the mortality rate and the amount of feed consumed were checked. In addition, a test for a control area was carried out under the same conditions as those described above, with the exception of replacing the emulsion (I) with the emulsion (II). The test was repeated in both cases.

The subject of a further series is Caenorhabditis elegans. Nature of the series: Efficacy test against Caenorhabditis elegans (in vitro test). It counts as in vivo. The conditions noted are these: 48 h, mixed instars, 2 days at 25° C., 96-well microplate, read-out: nematode mortality rate against Caenorhabditis elegans. The method, then: as §1, with “50 mixed instars” for “50 second-instar larvae (L2)”, “of Caenorhabditis elegans” for “of Meloidogyne incognita”, “[…]” for “10,000 ppm”, “at 25°” for “at 15°”

The test system of a further series is Heterodera glycines. Nature of the series: Efficacy test against Heterodera glycines (in vitro test). It counts as in vivo. The conditions noted are these: 72 h, second-instar larvae (L2), 3 days at 25° C., 96-well microplate, read-out: nematode mortality rate against Heterodera glycines. The procedure: as §1, with “of Heterodera glycines” for “of Meloidogyne incognita”, “[…]” for “10,000 ppm”, “and 0.2” for “and 1.0”, “was 10” for “was 50”, “for 3” for “for 2”, “at 25°” for “at 15°”

The mortality is the percentage killed. For `O=C(Nc1ccc(C(F)(F)F)cc1)c1ncc(C(F)(F)F)cc1NS(=O)(=O)C(F)(F)F` [Compound A-2], in the series on Meloidogyne incognita, the mortality at 50 ppm was at least 80%. For the same compound, the mortality at 125 ppm in the series with Spodoptera litura and in the series with Plutella xylostella was at least 80% each time. In addition, the “mortality rate against Mythimna separata” value in the series with Mythimna separata amounted to 100%.
As for `O=C(Nc1ccc(C(F)(F)F)cc1)c1ccc(Cl)nc1NS(=O)(=O)C(F)(F)F` [Compound A-4], the mortality at 50 ppm in the series on Meloidogyne incognita is at least 80%. Besides, the mortality at 125 ppm with Spodoptera litura and with Plutella xylostella was at least 80% each time. Further, the “mortality rate against Mythimna separata” value in the series on Mythimna separata is 100%.
For orientation: melting point means the temperature, or range, at which the solid turns liquid. The compound `COC(=O)c1cc(F)c(F)cc1NC(=O)c1ncc(C(F)(F)F)cc1NS(=O)(=O)C(F)(F)F` [Compound A-3] had a melting point of 270 °C.
As to `O=C(Nc1ccc(C(F)(F)F)cc1)c1cnc(Cl)cc1NS(=O)(=O)C(F)(F)F` [Compound A-1, 6-chloro-N-[4-(trifluoromethyl)phenyl]-4-(trifluoromethylsulfonylamino)pyridine-3-carboxamide], the mortality at 50 ppm with Meloidogyne incognita and with Caenorhabditis elegans was at least 80% each time. In addition, the mortality at 125 ppm with Spodoptera litura and with Plutella xylostella was at least 80% each time. Also, in the series on Mythimna separata, the “mortality rate against Mythimna separata” value was determined as 100%. For the same compound, in the series on Heterodera glycines, the mortality at 10 ppm is at least 80%.
With `O=C(Nc1cc(F)c(F)cc1-n1cccn1)c1sc(Cl)cc1NS(=O)(=O)C(F)(F)F` [Compound A-6], the mortality at 50 ppm in the series on Meloidogyne incognita is at least 80%. In addition, the “mortality rate against Mythimna separata” value in the series with Mythimna separata was 100%.
As for `O=C(Nc1ccc(C(F)(F)F)cc1)c1cc(Cl)ncc1NS(=O)(=O)C(F)(F)F` [Compound A-5], the mortality at 50 ppm in the series on Meloidogyne incognita and in the series on Caenorhabditis elegans was at least 80% each time. Further, the “mortality rate against Mythimna separata” value in the series on Mythimna separata was 100%. In the series with Heterodera glycines, the mortality at 10 ppm is at least 80%.
Take `O=C(Nc1ccc(F)c(F)c1)c1cnc(Cl)cc1NS(=O)(=O)C(F)(F)F` [Compound A-7]: the mortality at 50 ppm in the series on Meloidogyne incognita and with Caenorhabditis elegans was at least 80% in each case. Further, the “mortality rate against Mythimna separata” value in the series with Mythimna separata was determined as 100%. The mortality at 10 ppm with Heterodera glycines was at least 80%.
